The values that follow come from ChEMBL document CHEMBL1130364, “3-Amino-1,2-benzisoxazoles: A new family of potent inhibitors of LTB4 binding to the human neutrophils” (Bioorg Med Chem Lett, 1997).

Experiment [1] deals with Leukotriene B4 receptor 1 (Homo sapiens) (UniProt Q15722). As to the kind of experiment: The compound was tested for inhibition of [3H]LTB4 binding to Leukotriene B4 (LTB4) receptor on the human neutrophils (PMN) at concentration of 100 nM.
The target is the same in experiment [2]. As to the kind of experiment: The compound was tested for inhibition of [3H]-LTB4 binding to Leukotriene B4 (LTB4) receptor on the human neutrophils (PMN) at concentration of 10 nM.
Experiment [3] has the same target. As to the kind of experiment: The compound was tested for inhibition of [3H]LTB4 binding to Leukotriene B4 (LTB4) receptor on the human neutrophils (PMN) at concentration of 1 uM.

Sequence of Leukotriene B4 receptor 1 (Homo sapiens) (Q15722 whole entry): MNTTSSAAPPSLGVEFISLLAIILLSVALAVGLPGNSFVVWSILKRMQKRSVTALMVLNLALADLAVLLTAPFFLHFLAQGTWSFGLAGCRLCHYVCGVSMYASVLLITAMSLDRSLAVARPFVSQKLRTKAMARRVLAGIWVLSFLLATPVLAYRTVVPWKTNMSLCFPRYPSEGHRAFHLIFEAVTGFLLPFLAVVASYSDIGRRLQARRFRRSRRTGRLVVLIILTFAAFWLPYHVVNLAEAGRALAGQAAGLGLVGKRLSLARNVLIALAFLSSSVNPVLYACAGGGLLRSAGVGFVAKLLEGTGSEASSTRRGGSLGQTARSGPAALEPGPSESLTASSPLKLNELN

A word on the inhibition: it is the change of the read-out against control, counted positive when it falls. Regarding `COc1cc(C(=O)N(C(C)C)C(C)C)ccc1OCCCCCOc1ccc2c(N)noc2c1`, the inhibition was 10% in experiment [1], under 10% in experiment [2] and 90% in experiment [3].

Consider `COc1cc(C(=O)N(C(C)C)C(C)C)ccc1OCCCOc1ccc2c(N)noc2c1`, for which the inhibition in experiment [1] is 37%; in experiment [2], under 10%; in experiment [3], 92%.

In the case of `COc1cc(C(=O)N(C(C)C)C(C)C)ccc1OCCCCOc1ccc2c(N)noc2c1`, the inhibition was 95% in experiment [1], 64% in experiment [2] and 99% in experiment [3].
